In the NIST ThermoML archive (doi:10.1016/j.jct.2014.06.006) one finds activity coefficient data, which are given here for 36 molecules.

± gives the expanded uncertainty stated by the source.

A short description of this data set: activity coefficient (dimensionless); of the first substance listed, at infinite dilution; xn = mol fraction of the nth substance listed. Particulars: 298 K; 238 kPa; Liquid; Chromatography; x1 = 0.
Turning to `Clc1ccccc1` [chlorobenzene] + COCCO, the activity coefficient is 2.9 ± 0.4.
The result for `c1ccc2ccccc2c1` [naphthalene] + CC(O)CO reads 136 ± 21; that for `Cc1ccccc1C` [1,2-dimethylbenzene] + COCCO, 5 ± 0.3.
The result for `C1CCCCCCC1` [cyclooctane] + COCCO reads 20.1 ± 0.9; that for `C=CC1CC=CCC1` (stereo unspecified) [4-ethenylcyclohexene] + COCCO, 8.6 ± 0.3; that for `Cc1ccc(C)cc1` [1,4-dimethylbenzene] + CC(O)CO, 26.7 ± 3.1.
To `CCc1ccccc1` [ethylbenzene] + COCCO belongs 4.9 ± 0.3.
With `CCCCCCC` [heptane] + CC(O)CO, the activity coefficient turned out to be 109 ± 30.
As to `Clc1ccccc1` [chlorobenzene] + CC(O)CO, the activity coefficient was 13.6 ± 1.1.
With `CC1CCCC1` [methylcyclopentane] + COCCO, the activity coefficient worked out at 11 ± 0.7.
To `C=CCCCCC=C` [1,7-octadiene] + COCCO belongs 10.6 ± 0.5; to `CCCCCCC` [heptane] + COCCO, 22.4 ± 0.9.
Turning to `Fc1ccccc1` [fluorobenzene] + CC(O)CO, the activity coefficient is 8.5 ± 0.5.
To `CCCCCC` [hexane] + COCCO belongs 16.3 ± 0.8.
As to `Cc1ccccc1C` [1,2-dimethylbenzene] + CC(O)CO, the activity coefficient came to 26.3 ± 3.1.
The result for `Fc1ccccc1` [fluorobenzene] + COCCO reads 1.8 ± 0.2.
For `CC1CCCCC1` [methylcyclohexane] + COCCO, the activity coefficient is 14.7 ± 0.9.
The result for `Brc1ccccc1` [bromobenzene] + COCCO reads 3.5 ± 0.2; that for `CCCCCC` [hexane] + CC(O)CO, 63 ± 20; that for `CCc1ccccc1` [ethylbenzene] + CC(O)CO, 26.2 ± 3.1.
`Cc1ccccc1` [toluene] + COCCO: the activity coefficient amounted to 3.6 ± 0.4.
For `C1=CCCCC1` [cyclohexene] + COCCO, the activity coefficient is 7.4 ± 0.3.
As to `Cc1ccc(C(C)C)cc1` [1-(1-methylethyl)-4-methylbenzene] + COCCO, the activity coefficient is 10 ± 0.5.
For `CCCCCCCC` [octane] + COCCO, the activity coefficient worked out at 27.9 ± 1.
The result for `Cc1ccccc1` [toluene] + CC(O)CO reads 17 ± 2.1.
Consider `CCCCCCCCCCC` [undecane] + COCCO, for which the activity coefficient is 94.6 ± 3.7.
Turning to `Cc1cccc(C)c1` [1,3-dimethylbenzene] + COCCO, the activity coefficient is 5.2 ± 0.3.
To `Cc1ccc(C)cc1` [1,4-dimethylbenzene] + COCCO belongs 5.2 ± 0.3; to `c1ccccc1` [benzene] + COCCO, 2.4 ± 0.4.
To `CCCCCCCCCC` [decane] + COCCO belongs 56.8 ± 2.2; to `C1CCCCC1` [cyclohexane] + COCCO, 11.4 ± 0.7; to `Cc1cccc(C)c1` [1,3-dimethylbenzene] + CC(O)CO, 28.4 ± 2.2.
As for `CCCCCCCCC` [nonane] + COCCO, the activity coefficient is 41.4 ± 1.7.
To `CCCCCCCC` [octane] + CC(O)CO belongs 150 ± 40; to `c1ccc2ccccc2c1` [naphthalene] + COCCO, 11 ± 2.
The result for `c1ccccc1` [benzene] + CC(O)CO reads 11.8 ± 1.1.
